Reference: patent US6689806B1, “Indolinone compounds as kinase inhibitors” (Sugen, Inc., priority 1999, dated 2004)
Where two headings read alike, the source gives them in different places.

Tests used:
PDGFR = PDGFR (Homo sapiens, UniProt P09619); experiment: Biochemical PDGFR assay (ELISA); parameters: expressed in transfected cells; host or cells: NIH 3T3; conditions: read-out: PDGFr biochem IC50
Experimental: This assay measures the in vitro kinase activity of PDGFR using ELISA.
6. PDGFR-β expressing NlH 3T3 cell lysate.
1. Coat Corning 96 well ELISA plates with 0.5 μg 28D4C10 in 100 μL PBS per well, store overnight at 4° C.
5. Dilute lysate in HNTG (10 μg lysate/100 μL HNTG)
6. Add 100 μL of diluted lysate to each well. Shake at room temperature for 60 min.
8. Add 80 μL working kinase buffer mix to ELISA plate containing captured PDGFR.
9. Dilute test compound 1:10 in TBS in 96-well polypropylene plates (i.e., 10 μL compound+90 μL TBS).
10. Add 10 μL diluted test compound to ELISA plate.
11. Incubate for 30 minutes while shaking at room temperature.
12. Add 10 μL ATP directly to all wells except negative control well (final well volume should be approximately 100 μL with 20 μM ATP in each well.) Incubate 30 minutes while shaking.
13. After 30 minutes, stop reaction by adding 10 μL of 200 mM EDTA (pH 8.0) to each well.
15. Add 100 μL anti-phosphotyrosine (1:3000 dilution in TBST) per well. Incubate 30-45 min. at room temperature, with shaking.
17. Add 100 μL Biosource Goat anti-rabbit IgG peroxidase conjugate (1:2000 dilution in TBST) to each well. Incubate 30 min. at room temperature, with shaking.
19. Add 100 μL of ABTS/H2O2 solution to each well.
22. Read assay on Dynatech MR7000 ELISA reader: test filter: 410 nM, reference filter: 630 nM.

Her2 = target: T1, Her2 (Homo sapiens, UniProt P04626); experiment: EGF-induced Her2-driven BrdU incorporation; assay type: cell-based; conditions: 3T3 cells with EGF-R/Her2 chimeric receptor, EGF 2 nM, read-out: BrdU DNA syn. HER2 IC50
T1 construct: fused on or other part: P00533 (Epidermal growth factor receptor)
Experimental: The cellular/biologic assays described herein measure the amount of DNA made in response to activation of a test kinase, which is a general measure of a proliferative response. The general procedure for this assay is as follows: a compound is introduced to cells expressing the test kinase, either naturally or recombinantly, for some period of time after which, if the test kinase is a receptor, a ligand known to activate the receptor is added. After incubation at least overnight, a DNA labeling reagent such as Bromodeoxy-uridine (BrdU) or 3H-thymidine is added. The amount of labeled DNA is detected with either an anti-BrdU antibody or by measuring radioactivity and is compared to control cells not contacted with a test compound.
EGF-Induced Her2-Driven BrdU Incorporation
(8) 3T3 cell line engineered to express a chimeric receptor having the extra-cellular domain of EGF-R and the intra-cellular domain of Her2.
(1) Cells are seeded at 8000 cells/well in DMEM, 10% CS, 2 mM Gln in a 96-well plate. Cells are incubated overnight at 37° C. in 5% CO2.
(2) After 24 hours, the cells are washed with PBS, and then are serum starved in serum free medium (0% CS DMEM with 0.1% BSA) for 24 hours.
(3) On day 3, ligand (EGF=2 nM, prepared in DMEM with 0.1% BSA) and test compounds are added to the cells simultaneously. The negative control wells receive serum free DMEM with 0.1% BSA only; the positive control cells receive the ligand (EGF) but no test compound. Test compounds are prepared in serum free DMEM with ligand in a 96 well plate, and serially diluted for 7 test concentrations.
(4) After 20 hours of ligand activation, diluted BrdU labeling reagent (1:100 in DMEM, 0.1% BSA) is added and the cells are incubated with BrdU (final concentration=[…]) for 1.5 hours.
(10) The absorbance of the samples are measured at 410 nm (in “dual wavelength” mode with a filter reading at 490 nm, as a reference wavelength) on a Dynatech ELISA plate reader.

[1] = Table 5, in vitro kinase activity
[2] = Table 7, in vitro kinase activity

T1 sequence (P04626 676-1255 limits assumed): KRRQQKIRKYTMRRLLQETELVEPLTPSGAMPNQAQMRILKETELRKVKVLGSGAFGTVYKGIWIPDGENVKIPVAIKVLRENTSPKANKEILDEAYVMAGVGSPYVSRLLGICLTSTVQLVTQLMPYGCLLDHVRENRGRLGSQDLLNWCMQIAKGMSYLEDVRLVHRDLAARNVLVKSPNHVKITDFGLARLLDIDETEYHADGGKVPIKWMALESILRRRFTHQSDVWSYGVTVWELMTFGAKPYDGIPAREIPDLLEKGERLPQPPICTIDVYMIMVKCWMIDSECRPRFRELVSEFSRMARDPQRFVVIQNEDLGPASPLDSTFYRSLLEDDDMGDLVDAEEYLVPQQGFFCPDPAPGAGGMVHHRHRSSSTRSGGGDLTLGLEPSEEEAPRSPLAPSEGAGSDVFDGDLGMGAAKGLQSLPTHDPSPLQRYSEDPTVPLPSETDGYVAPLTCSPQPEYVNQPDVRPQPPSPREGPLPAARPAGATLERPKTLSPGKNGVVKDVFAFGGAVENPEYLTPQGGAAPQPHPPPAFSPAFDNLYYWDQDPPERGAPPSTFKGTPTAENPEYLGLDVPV
Sequence of PDGFR (P09619 33-1106): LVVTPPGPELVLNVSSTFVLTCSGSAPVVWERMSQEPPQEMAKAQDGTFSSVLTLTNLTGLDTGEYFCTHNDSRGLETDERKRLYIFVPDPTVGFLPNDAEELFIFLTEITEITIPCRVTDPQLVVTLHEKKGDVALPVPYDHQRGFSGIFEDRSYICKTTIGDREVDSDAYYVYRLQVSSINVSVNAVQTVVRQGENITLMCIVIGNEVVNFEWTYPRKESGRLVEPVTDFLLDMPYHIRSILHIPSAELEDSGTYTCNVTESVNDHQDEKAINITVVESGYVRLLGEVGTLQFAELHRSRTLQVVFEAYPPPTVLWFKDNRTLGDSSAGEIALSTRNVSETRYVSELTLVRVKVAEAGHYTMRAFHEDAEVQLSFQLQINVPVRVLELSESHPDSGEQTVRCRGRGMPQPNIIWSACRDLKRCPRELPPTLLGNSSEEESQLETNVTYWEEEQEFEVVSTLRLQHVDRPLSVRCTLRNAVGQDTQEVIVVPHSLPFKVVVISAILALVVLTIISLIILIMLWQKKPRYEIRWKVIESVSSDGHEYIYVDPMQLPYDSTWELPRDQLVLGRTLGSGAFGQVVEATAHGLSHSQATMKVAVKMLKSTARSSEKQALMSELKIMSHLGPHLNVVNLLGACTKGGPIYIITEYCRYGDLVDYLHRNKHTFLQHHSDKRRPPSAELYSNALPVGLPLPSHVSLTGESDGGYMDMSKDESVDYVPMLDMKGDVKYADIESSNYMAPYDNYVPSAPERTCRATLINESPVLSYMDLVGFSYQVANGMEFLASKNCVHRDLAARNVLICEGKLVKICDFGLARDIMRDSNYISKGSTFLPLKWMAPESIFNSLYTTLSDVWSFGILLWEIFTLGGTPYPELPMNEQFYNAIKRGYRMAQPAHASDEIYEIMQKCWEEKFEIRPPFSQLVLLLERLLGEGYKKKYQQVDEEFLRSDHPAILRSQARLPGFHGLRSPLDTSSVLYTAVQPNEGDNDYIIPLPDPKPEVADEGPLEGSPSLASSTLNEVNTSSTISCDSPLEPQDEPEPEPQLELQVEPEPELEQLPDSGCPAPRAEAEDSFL

SMILES | IC50 (PDGFR; [1]) | IC50 (Her2; Table 5) | IC50 (PDGFR; [2]) | IC50 (Her2; Table 7)
COc1ccc(CC2C(=O)Nc3ccc(F)cc32)cc1C1CCCC1 (stereo not drawn) [AAI-5, 3-(3-Cyclopentyl-4-methoxybenzyl)-5-fluoro-1,3-dihydroindol-2-one] | > 100 µM | 32.7 µM |  | 
CC(=O)Nc1ccc2c(c1)NC(=O)C2Cc1ccc(OCCN2CCOCC2)c(C2CCCCC2)c1 (stereo not drawn) [AAI-7, N-{3-[3-Cyclohexyl-4-(2-morpholin-4-ylethoxy)-benzyl]-2-oxo-2,3-dihydro-1H-indol-6-yl}-acetamide] | > 100 µM | 6.8 µM |  | 
Cc1[nH]c(CC2C(=O)Nc3ccc(Cl)cc32)c(C)c1CCCN(C)C (stereo not drawn) [AAI-23, 5-Chloro-3-[4-(3-dimethylaminopropyl)-3,5-dimethyl-1H-pyrrol-2-ylmethyl]-1,3-dihydroindol-2-one] | 0.81 µM | > 50 µM |  | 
CC(C)c1ccccc1OCCc1cccc2c1CC(=O)N2 [IN-002, 4-[2-(2-Isopropyl-phenoxy)-ethyl]-1,3-dihydro-indol-2-one] |  |  | > 100 µM | 30 µM
Cc1cccc(/C=C2\C(=O)Nc3cccc(CCO)c32)n1 [IN-006] |  |  | > 100 µM | 6.6 µM
Cc1[nH]c(/C=C2\C(=O)Nc3cccc(CCOc4ccc(C(C)C)cc4)c32)c(C)c1CCC(=O)O [IN-024, 3-(5-{4-[2-(4-Isopropyl-phenoxy)-ethyl]-2-oxo-1,2-dihydro-indol-3-ylidenemethyl}-2,4-dimethyl-1H-pyrro-3-yl)-propionic acid] |  |  | 97.5 µM | > 50 µM
COc1ccc(CC2C(=O)Nc3ccc(CCN4CCOCC4)cc32)cc1-c1ccsc1 (stereo not drawn) [AAI-8, 3-(4-Methoxy-3-thiophen-3-ylbenzyl)-5-(2-morpholin-4-ylethyl)-1,3-dihydroindol-2-one] | > 100 µM | 11.5 µM |  | 
CC(C)c1cccc(OCCc2cccc3c2CC(=O)N3)c1 [IN-001, 4-[2-(3-Isopropyl-phenoxy)-ethyl]-1,3-dihydro-indol-2-one] |  |  | > 100 µM | 28.9 µM
O=C1Nc2cccc(CCO)c2/C1=C/c1ccccn1 [IN-005, 4-(2-Hydroxy-ethyl)-3-pyridin-2-ylmethylene-1,3-dihydro-indol-2-one] |  |  | > 100 µM | 1.6 µM
O=C1Nc2cccc(CCO)c2/C1=C\c1ccc(Br)cc1 [IN-004, 3-(4-Bromo-benzylidene)-4-(2-hydroxy-ethyl)-1,3-dihydro-indol-2-one] |  |  | > 100 µM | 3.6 µM
O=C1Nc2ccc(F)cc2C1Cc1ccc(O)c(C2CCCC2)c1 (stereo not drawn) [AAI-11, 3-(3-Cyclopentyl-4-hydroxybenzyl)-5-fluoro-1,3-dihydroindol-2-one] | > 100 µM | > 50 µM |  | 
Cc1ccc(O)c(C=C2C(=O)Nc3cccc(CCO)c32)n1 (racemic) [IN-022, 4-(2-Hydroxy-ethyl)-3-(3-hydroxy-6-methyl-pyridin-2-ylmethylene)-1,3-dihydro-indol-2-one] |  |  | > 100 µM | > 50 µM
Cc1[nH]c(/C=C2\C(=O)Nc3cccc(CCOc4cccc(C(C)C)c4)c32)c(C)c1CCCN(C)C [IN-023] |  |  | 49.1 µM | 33.8 µM
Cc1[nH]c(CC2C(=O)Nc3ccccc32)c(C)c1CCCN(C)C (stereo not drawn) [AAI-18, 3-[4-(3-Dimethylaminopropyl)-3,5-dimethyl-1H-pyrrol-2-ylmethyl]-1,3-dihydroindol-2-one] | 0.56 µM | > 50 µM |  | 

Second part, the compound after the results:

IC50 (PDGFR; [1]) | IC50 (Her2; Table 5) | IC50 (PDGFR; [2]) | IC50 (Her2; Table 7) | SMILES
3.42 µM | > 50 µM |  |  | COc1cccc(-c2ccc3c(c2)NC(=O)C3Cc2[nH]c(C)c(CCCN(C)C)c2C)c1 (stereo not drawn) [AAI-21, 3-[4-(3-Dimethylaminopropyl)-3,5-dimethyl-1H-pyrrol-2-ylmethyl]-6-(3-methoxyphenyl)-1,3-dihydroindol-2-one]
> 100 µM | > 50 µM |  |  | COc1ccc(CC2C(=O)Nc3cc(-c4ccccc4)ccc32)c(O)c1 (stereo not drawn) [AAI-25, 3-(2-Hydroxy-4-methoxybenzyl)-6-phenyl-1,3-dihydroindol-2-one]
> 100 µM | > 50 µM |  |  | Cc1cccc2c1C(Cc1ccc3[nH]ccc3c1)C(=O)N2 (stereo not drawn) [AAI-16, 3-(1H-Indol-5-ylmethyl)-4-methyl-1,3-dihydroindol-2-one]
> 100 µM | > 50 µM |  |  | O=C1Nc2ccccc2C1Cc1ccc2[nH]ccc2c1 (stereo not drawn) [AAI-17, 3-(1H-Indol-5-ylmethyl)-1,3-dihydroindol-2-one]
> 100 µM | 34.1 µM |  |  | COc1c(C(C)C)cc(CC2C(=O)Nc3ccccc32)cc1C(C)C (stereo not drawn) [AAI-10, 3-(3,5-Diisopropyl-4-methoxybenzyl)-1,3-dihydroindol-2-one]
> 100 µM | > 50 µM |  |  | COc1cccc(-c2ccc3c(c2)NC(=O)C3Cc2ccccc2O)c1 (stereo not drawn) [AAI-13, 3-(2-Hydroxybenzyl)-6-(3-methoxyphenyl)-1,3-dihydroindol-2-one]
 |  | > 100 µM | 2.3 µM | COc1ccc(/C=C2\C(=O)Nc3cccc(CCO)c32)cc1-c1cccs1 [IN-008, 4-(2-Hydroxy-ethyl)-3-(4-methoxy-3-thiophen-2-yl-benzylidene)-1,3-dihydro-indol-2-one]
> 100 µM | > 50 µM |  |  | Cc1cccc(CC2C(=O)Nc3cccc(CCO)c32)n1 (stereo not drawn) [AAI-27, 4-(2-Hydroxyethyl)-3-(6-methylpyridin-2-ylmethyl)-1,3-dihydroindol-2-one]
 |  | 20.2 µM | 12.1 µM | O=C1Cc2c(CCOc3cccc(-c4ccccc4)c3)cccc2N1 [IN-003, 4-[2-(Biphenyl-3-yloxy)-ethyl]-1,3-dihydro-indol-2-one]
> 100 µM | 27.3 µM |  |  | COc1ccc(CC2C(=O)Nc3cc(NC(C)=O)ccc32)cc1-c1cccs1 (stereo not drawn) [AAI-6, N-[3-(4-Methoxy-3-thiophen-2-ylbenzyl)-2-oxo-2,3-dihydro-1H-indol-6-yl]-acetamide]
> 100 µM | 30.9 µM |  |  | O=C1Nc2cc(-c3ccccc3)ccc2C1Cc1cccc(F)c1O (stereo not drawn) [AAI-24, 3-(3-Fluoro-2-hydroxybenzyl)-6-phenyl-1,3-dihydroindol-2-one]
2.13 µM | 29.2 µM |  |  | COc1ccccc1-c1ccc2c(c1)NC(=O)C2Cc1[nH]c(C)c(CCCN(C)C)c1C (stereo not drawn) [AAI-20, 3-[4-(3-Dimethylamino-propyl)-3,5-dimethyl-1H-pyrrol-2-ylmethyl]-6-(2-methoxy-phenyl)-1,3-dihydro-indol-2-one]
80 µM | > 50 µM |  |  | COc1ccc(-c2ccc3c(c2)NC(=O)C3Cc2[nH]c(C)c(CCCN(C)C)c2C)cc1 (stereo not drawn) [AAI-22, 3-[4-(3-Dimethylaminopropyl)-3,5-dimethyl-1H-pyrrol-2-ylmethyl]-6-(4-methoxyphenyl)-1,3-dihydroindol-2-one]
